From article PMC8580319, “Dual activities of ACC synthase: Novel clues regarding the molecular evolution of ACS genes” (Science Advances, 2021)

Legend:
Details in all cases: Cβ-S lyase activity; 4 mM L-cystine, 100 μM PLP, 30°C
GmACS7-like = molecular target: T1, GmACS7-like (Glycine max, UniProt I1K634); assay: pyruvate formation, […],4-dinitrophenylhydrazine, A520; type: biochemical
T1 construct: gene LOC100799562; recombinant, His or GST tag, from E. coli
T1 sequence (I1K634 1-440): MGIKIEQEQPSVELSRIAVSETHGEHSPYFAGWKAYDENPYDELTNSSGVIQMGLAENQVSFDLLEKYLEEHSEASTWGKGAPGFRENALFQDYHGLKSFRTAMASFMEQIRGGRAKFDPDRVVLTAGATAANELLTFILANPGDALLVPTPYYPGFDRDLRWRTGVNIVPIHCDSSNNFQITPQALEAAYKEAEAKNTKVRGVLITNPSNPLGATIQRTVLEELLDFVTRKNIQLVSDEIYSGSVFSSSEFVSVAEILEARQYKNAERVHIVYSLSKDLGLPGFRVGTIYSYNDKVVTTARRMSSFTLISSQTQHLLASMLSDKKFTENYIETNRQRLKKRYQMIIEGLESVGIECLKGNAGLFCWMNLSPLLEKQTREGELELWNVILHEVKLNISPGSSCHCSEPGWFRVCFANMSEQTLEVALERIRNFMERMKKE

AtACS8 = molecular target: T2, AtACS8 (Arabidopsis thaliana, UniProt Q9T065); assay: as above; type: biochemical
T2 construct: gene ACS8; recombinant, His or GST tag, from E. coli
T2 sequence (Q9T065 1-469): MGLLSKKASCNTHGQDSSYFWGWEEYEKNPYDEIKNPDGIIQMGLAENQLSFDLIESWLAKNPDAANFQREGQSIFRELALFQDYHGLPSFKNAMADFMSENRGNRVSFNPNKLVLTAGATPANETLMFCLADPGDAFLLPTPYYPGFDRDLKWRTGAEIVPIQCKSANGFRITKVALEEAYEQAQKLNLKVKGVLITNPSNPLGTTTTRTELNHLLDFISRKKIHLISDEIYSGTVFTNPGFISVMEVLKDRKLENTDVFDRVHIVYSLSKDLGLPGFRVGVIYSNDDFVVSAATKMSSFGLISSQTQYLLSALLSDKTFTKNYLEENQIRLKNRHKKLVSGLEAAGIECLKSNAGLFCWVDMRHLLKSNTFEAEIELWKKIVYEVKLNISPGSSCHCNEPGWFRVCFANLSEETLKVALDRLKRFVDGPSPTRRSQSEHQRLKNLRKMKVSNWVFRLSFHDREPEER

AtACS6 = molecular target: T3, AtACS6 (Arabidopsis thaliana, UniProt Q9SAR0); assay: as above; type: biochemical
T3 construct: gene ACS6; recombinant, His or GST tag, from E. coli
T3 sequence (Q9SAR0 1-495): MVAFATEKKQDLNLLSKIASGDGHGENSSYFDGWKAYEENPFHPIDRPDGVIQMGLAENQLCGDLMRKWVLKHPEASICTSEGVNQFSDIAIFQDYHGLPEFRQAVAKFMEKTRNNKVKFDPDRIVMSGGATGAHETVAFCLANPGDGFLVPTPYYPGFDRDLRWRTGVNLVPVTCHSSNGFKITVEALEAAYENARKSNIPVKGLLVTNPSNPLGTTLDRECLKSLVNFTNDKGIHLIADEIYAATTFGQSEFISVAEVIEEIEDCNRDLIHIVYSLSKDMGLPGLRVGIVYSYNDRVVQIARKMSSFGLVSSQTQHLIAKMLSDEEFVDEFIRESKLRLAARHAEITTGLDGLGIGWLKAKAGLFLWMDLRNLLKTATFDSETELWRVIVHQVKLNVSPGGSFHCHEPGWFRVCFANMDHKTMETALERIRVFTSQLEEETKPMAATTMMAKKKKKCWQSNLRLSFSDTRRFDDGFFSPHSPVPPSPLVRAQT

AtACS11 = molecular target: T4, AtACS11 (Arabidopsis thaliana, UniProt Q9S9U6); assay: as above; type: biochemical
T4 construct: gene ACS11; recombinant, His or GST tag, from E. coli
T4 sequence (Q9S9U6 1-460): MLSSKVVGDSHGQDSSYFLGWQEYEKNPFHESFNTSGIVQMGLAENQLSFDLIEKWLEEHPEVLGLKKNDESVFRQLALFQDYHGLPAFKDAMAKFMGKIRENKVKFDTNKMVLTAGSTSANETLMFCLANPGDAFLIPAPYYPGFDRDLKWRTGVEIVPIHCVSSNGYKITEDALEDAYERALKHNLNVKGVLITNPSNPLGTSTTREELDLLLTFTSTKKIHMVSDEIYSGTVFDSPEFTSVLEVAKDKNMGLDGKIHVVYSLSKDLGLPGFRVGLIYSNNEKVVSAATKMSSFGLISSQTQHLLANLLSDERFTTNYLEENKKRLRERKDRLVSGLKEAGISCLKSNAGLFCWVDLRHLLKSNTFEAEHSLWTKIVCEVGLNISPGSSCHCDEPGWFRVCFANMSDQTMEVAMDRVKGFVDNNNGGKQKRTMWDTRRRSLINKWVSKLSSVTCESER

AtACS7 = molecular target: T5, AtACS7 (Arabidopsis thaliana, UniProt Q9STR4, Q98A); assay: as above; type: biochemical
T5 construct: gene ACS7; recombinant from E. coli Rosetta 2 (DE3) pLysS; pET-28a (His) or pGEX-6p-1 (GST); His-tagged protein for crystals; dimer
T5 sequence (Q9STR4 1-447 Q98A): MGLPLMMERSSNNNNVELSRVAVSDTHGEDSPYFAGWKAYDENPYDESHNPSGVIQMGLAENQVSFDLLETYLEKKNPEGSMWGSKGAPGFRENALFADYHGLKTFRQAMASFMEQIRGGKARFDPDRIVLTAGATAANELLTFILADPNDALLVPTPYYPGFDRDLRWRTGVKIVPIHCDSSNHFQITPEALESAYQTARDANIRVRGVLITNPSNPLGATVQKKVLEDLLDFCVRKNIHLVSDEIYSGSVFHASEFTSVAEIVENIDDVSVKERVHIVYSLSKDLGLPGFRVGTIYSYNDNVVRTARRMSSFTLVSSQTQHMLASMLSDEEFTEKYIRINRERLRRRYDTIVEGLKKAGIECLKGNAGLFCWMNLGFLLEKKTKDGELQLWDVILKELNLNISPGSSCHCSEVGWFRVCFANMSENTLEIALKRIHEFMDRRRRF

OsACS5 = molecular target: T6, OsACS5 (Oryza sativa, UniProt A0A0P0UZP7)
T6 construct: gene ACS5
T6 sequence (A0A0P0UZP7 whole entry): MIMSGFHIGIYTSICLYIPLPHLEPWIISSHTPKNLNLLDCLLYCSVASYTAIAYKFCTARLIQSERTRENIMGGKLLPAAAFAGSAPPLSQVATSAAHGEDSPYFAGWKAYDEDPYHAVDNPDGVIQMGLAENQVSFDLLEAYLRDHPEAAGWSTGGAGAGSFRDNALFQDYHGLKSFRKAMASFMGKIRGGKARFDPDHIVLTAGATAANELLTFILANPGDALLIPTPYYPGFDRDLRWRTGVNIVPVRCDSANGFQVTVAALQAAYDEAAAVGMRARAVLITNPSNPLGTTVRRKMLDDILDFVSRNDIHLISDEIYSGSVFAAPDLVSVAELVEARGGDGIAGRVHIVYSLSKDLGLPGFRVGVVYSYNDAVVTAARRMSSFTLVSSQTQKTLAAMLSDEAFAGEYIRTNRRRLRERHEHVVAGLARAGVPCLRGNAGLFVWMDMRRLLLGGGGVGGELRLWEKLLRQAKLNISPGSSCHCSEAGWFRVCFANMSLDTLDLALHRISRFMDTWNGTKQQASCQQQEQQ

N[C@@H](CSSC[C@H](N)C(=O)O)C(=O)O [L-cystine]
pyruvate formation, 2,4-dinitrophenylhydrazine, A520 (GmACS7-like): all of them had ACS and Cβ-S lyase dual enzymatic activities | pyruvate formation, 2,4-dinitrophenylhydrazine, A520 (AtACS8): all of them had ACS and Cβ-S lyase dual enzymatic activities | pyruvate formation, 2,4-dinitrophenylhydrazine, A520 (AtACS6): all of them had ACS and Cβ-S lyase dual enzymatic activities | pyruvate formation, 2,4-dinitrophenylhydrazine, A520 (AtACS11): all of them had ACS and Cβ-S lyase dual enzymatic activities | pyruvate formation, 2,4-dinitrophenylhydrazine, A520 (AtACS7): the mutant had high in vitro Cβ-S lyase activity | pyruvate formation, 2,4-dinitrophenylhydrazine, A520 (OsACS5): all of them had ACS and Cβ-S lyase dual enzymatic activities
